Test results reported in PubChem BioAssay (NCI).
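These data come from cells grown in 96-well plates and exposed to compound for 48 hours at five concentrations. The concentration for 50% growth inhibition is given as GI50. TGI marks complete inhibition of growth.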

Key:
Experiment in all cases: NCI tumour cell line growth inhibition, 48 h
[1] = test system: SF-539 CNS
[2] = test system: HOP-62 NSCLC
[3] = test system: SK-MEL-28 melanoma
[4] = test system: 786-0 renal
[5] = test system: IGROV1 ovarian
[6] = test system: HL-60(TB) leukemia
[7] = test system: EKVX NSCLC
[8] = test system: SK-OV-3 ovarian
[9] = test system: BT-549 breast
[10] = test system: SR leukemia
[11] = test system: M14 melanoma
[12] = test system: MOLT-4 leukemia
[13] = test system: RXF 393 renal
[14] = test system: UO-31 renal
[15] = test system: SF-268 CNS
[16] = test system: CCRF-CEM leukemia
[17] = test system: T-47D breast
[18] = test system: OVCAR-4 ovarian
[19] = test system: DU-145 prostate
[20] = test system: UACC-257 melanoma
[21] = test system: TK-10 renal
[22] = test system: OVCAR-3 ovarian
[23] = test system: NCI-H522 lung
[24] = test system: MDA-MB-231 breast
[25] = test system: SK-MEL-2 melanoma
[26] = test system: NCI-H460 lung
[27] = test system: KM12 colon
[28] = test system: OVCAR-5 ovarian
[29] = test system: OVCAR-8 ovarian
[30] = test system: PC-3 prostate
[31] = test system: ACHN renal
[32] = test system: NCI-H226 lung
[33] = test system: SN12C renal
[34] = test system: HCT-116 colon
[35] = test system: HT29 colon
[36] = test system: U251 CNS
[37] = test system: A549 NSCLC
[38] = test system: LOX IMVI melanoma
[39] = test system: SW-620 colon
[40] = test system: MDA-MB-435
[41] = test system: HOP-92 NSCLC
[42] = test system: A498 renal
[43] = test system: HS 578T breast
[44] = test system: SNB-19 CNS
[45] = test system: NCI/ADR-RES ovarian
[46] = test system: NCI-H23 lung
[47] = test system: SK-MEL-5 melanoma
[48] = test system: MCF7 breast

COc1cc(-c2nn(-c3ccc(NC(=O)NCCNS(=O)(=O)c4ccc(F)cc4)cc3)cc2-c2ccncc2)ccc1Cl
GI50 [1]: 0.281 µM | TGI [1]: 0.965 µM | GI50 [2]: 0.544 µM | TGI [2]: 51 µM | GI50 [3]: 1.42 µM | TGI [3]: 9.29 µM | GI50 [4]: 0.901 µM | TGI [4]: 6.3 µM | GI50 [5]: 0.795 µM | TGI [5]: 8.4 µM | GI50 [6]: 0.391 µM | TGI [6]: 2.26 µM | GI50 [7]: 1.32 µM | TGI [7]: > 100 µM | GI50 [8]: 0.705 µM | TGI [8]: 8.15 µM | GI50 [9]: 0.782 µM | TGI [9]: 4.95 µM | GI50 [10]: 0.427 µM | TGI [10]: 3.01 µM | GI50 [11]: 0.324 µM | TGI [11]: 1.53 µM | GI50 [12]: 0.583 µM | TGI [12]: 3.99 µM | GI50 [13]: 0.247 µM | TGI [13]: 0.888 µM | GI50 [14]: 2.38 µM | TGI [14]: > 100 µM | GI50 [15]: 0.629 µM | TGI [15]: 5 µM | GI50 [16]: 0.459 µM | TGI [16]: > 100 µM | GI50 [17]: 0.733 µM | TGI [17]: 5.56 µM | GI50 [18]: 1.04 µM | TGI [18]: > 100 µM | GI50 [19]: 0.387 µM | TGI [19]: 10.8 µM | GI50 [20]: 1.57 µM | TGI [20]: 4.73 µM | GI50 [21]: 1.89 µM | TGI [21]: 6.33 µM | GI50 [22]: 0.246 µM | TGI [22]: 0.665 µM | GI50 [23]: 0.295 µM | TGI [23]: 2.7 µM | GI50 [24]: 0.65 µM | TGI [24]: 3.38 µM | GI50 [25]: 0.553 µM | TGI [25]: 2.62 µM | GI50 [26]: 0.387 µM | TGI [26]: 1.51 µM | GI50 [27]: 0.39 µM | TGI [27]: 2.03 µM | GI50 [28]: 1.21 µM | TGI [28]: > 100 µM | GI50 [29]: 0.588 µM | TGI [29]: 5.38 µM | GI50 [30]: 0.453 µM | TGI [30]: 4.75 µM | GI50 [31]: 2.21 µM | TGI [31]: 8.06 µM | GI50 [32]: 1.38 µM | TGI [32]: 7.3 µM | GI50 [33]: 0.733 µM | TGI [33]: 8.44 µM | GI50 [34]: 0.339 µM | TGI [34]: 1.77 µM | GI50 [35]: 0.318 µM | TGI [35]: 1.23 µM | GI50 [36]: 0.409 µM | TGI [36]: 2.49 µM | GI50 [37]: 1.92 µM | TGI [37]: 23.1 µM | GI50 [38]: 0.556 µM | TGI [38]: 2.88 µM | GI50 [39]: 0.529 µM | TGI [39]: 12.7 µM | GI50 [40]: 0.17 µM | TGI [40]: 0.418 µM | GI50 [41]: 1.45 µM | TGI [41]: 5.91 µM | GI50 [42]: 0.389 µM | TGI [42]: 2.18 µM | GI50 [43]: 0.453 µM | TGI [43]: 5.98 µM | GI50 [44]: 0.857 µM | TGI [44]: > 100 µM | GI50 [45]: > 100 µM | TGI [45]: > 100 µM | GI50 [46]: 0.632 µM | TGI [46]: 5.18 µM | GI50 [47]: 0.453 µM | TGI [47]: 1.68 µM | GI50 [48]: 0.3 µM | TGI [48]: > 100 µM
